Test results taken from ChEMBL document CHEMBL5729111, “CD73 inhibitors and therapeutic uses thereof” (2022).

Target: 5'-nucleotidase (Homo sapiens, UniProt P21589)
Assay: Enzyme Activity In Vitro Assay: I. Experimental Materials and Equipment1. Malachite green phosphate detection kit (R & D Systems, Cat #, DY996)2. Recombinant human 5′-nucleotidase (CD73) (R & D Systems, Cat #, 5795-EN)3. HEPES buffer (Gibco, Cat #, 15630-080)4. CMP (Sigma, Cat #, C1006)5. DMSO (Fisher Chemical, Cat #, D128-1)6. NaCl 5M (Boston Bioproducts, Cat #, BM-244)7.384-well plate (Fisher, Cat #, 5795-EN)8. TECAN plate reader (TECAN)II. Experimental ProcedureCompounds are first dissolved in DMSO to 10 mM as a stock solution. When determining the IC50 of the compound, prepare 3-fold serial dilutions with a highest concentration of 125 μM for a total of 12 concentration points and ensure each dilution containing equal amount of DMSO. In each well of 384-well plate, 0.34 nM of recombinant human 5′-nucleotidase (CD73) was pre-incubated at 37° C. for 2 hours with the compounds tested in assay buffer containing 20 mM HEPES buffer (pH 7.4), 137 mM NaCl, 0.001% Tween 20. The final reaction volume of the reaction in each well was 12 μL. The highest concentration of compound was 125 μM and the DMSO concentration was 1.25%. After pre-incubation, 3 μL of CMP dissolved in assay buffer was added to each reaction. The final CMP concentration was 45 μM. The reaction was incubated at 37° C. for 15 minutes. Then 3 μL of Malachite Green Reagent A was added to each reaction. […]

Chain of 5'-nucleotidase (P21589 whole entry): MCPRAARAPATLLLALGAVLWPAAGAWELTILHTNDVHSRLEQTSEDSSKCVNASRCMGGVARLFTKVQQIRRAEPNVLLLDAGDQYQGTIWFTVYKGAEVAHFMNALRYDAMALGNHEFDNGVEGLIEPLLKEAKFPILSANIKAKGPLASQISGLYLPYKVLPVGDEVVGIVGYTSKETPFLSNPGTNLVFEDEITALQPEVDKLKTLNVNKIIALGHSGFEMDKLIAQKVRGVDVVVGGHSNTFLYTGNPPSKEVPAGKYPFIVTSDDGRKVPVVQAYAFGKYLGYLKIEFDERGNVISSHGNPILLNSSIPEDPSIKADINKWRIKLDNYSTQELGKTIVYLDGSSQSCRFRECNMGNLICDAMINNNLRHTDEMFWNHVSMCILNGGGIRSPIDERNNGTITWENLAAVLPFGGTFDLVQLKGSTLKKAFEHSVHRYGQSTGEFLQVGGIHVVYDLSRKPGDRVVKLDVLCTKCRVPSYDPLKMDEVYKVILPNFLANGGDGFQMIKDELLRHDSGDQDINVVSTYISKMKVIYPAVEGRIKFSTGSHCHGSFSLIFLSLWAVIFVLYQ

## CC(OC(=O)C(C)(C)C)OP(=O)(COC[C@H]1O[C@@H](n2ncc3c(N4CC5(CCc6ccccc65)C4)nc(Cl)nc32)[C@H](O)[C@@H]1O)OC(C)OC(=O)C(C)(C)C (stereo partly specified)
  IC50: 270 nM
